Laboratory results as given in patent publication EP4714952A1, “COMPOUND AND USE THEREOF” (Autobio Group Co., Ltd., priority 2023, dated 2025).
Where two headings read alike, the source gives them in different places.

Legend:
PDE3A = target: T1, PDE3A (Homo sapiens, UniProt Q14432); assay: In vitro inhibitory effect on PDE3A enzyme (AMP-Glo assay); type: biochemical
T1 construct: purchased BPS
Experimental: (§1) 1. Table 1 Main reagents and consumables for in vitro detection of inhibitory effect
(§2) 2. Preparation of experimental buffers Reaction buffer (5×): 50 mM Tris-HCl (buffer), 50 mM MgCl2, 0.5% BSA, 0.25% Tween-20, pH 7.4, stored at -20°C. 3. […] The starting concentration of the reference substance serial dilution was the Low control, and 1% DMSO-reaction buffer served as the High control. • 3) The enzyme was diluted to the desired concentration with 1× reaction buffer, and 4 µL of the diluted solution was transferred to the assay plate. After centrifugation, the 384-well low dead-volume microplate was sealed with sealing film and incubated in the incubator at 23°C for 15 minutes. • 4) The substrate cAMP was diluted to the desired concentration using 1× reaction buffer, and 5 µL of the diluted solution was transferred to the assay plate. After centrifugation, the plate was sealed again and incubated in the incubator at 23°C for 60 minutes (PDE3A) or 10 minutes (PDE4B1). • 5) Then, 5 µL of Reagent I from the AMP-Glo™ Assay Kit was added to the assay plate. After centrifugation and sealing, the plate was incubated in the incubator at 23°C for 60 minutes. • 6) The detection solution was prepared according to the AMP-Glo™ Assay Kit instructions, and 10 µL of the detection solution was added to the assay plate. After centrifugation and sealing, the plate was incubated in the incubator at 23°C for 60 minutes. • 7) The readout was recorded using a multimode microplate reader. 4. […] 5.

CYP2C9 = CYP2C9 (Homo sapiens, UniProt P11712); assay: In vitro CYP inhibition in human liver microsomes, CYP2C9
Experimental: (§3) 1.1 Working solutions (100×) of sample compounds and standard inhibitors were prepared.
(§4) 1.2 Microsomes were removed from a -80°C refrigerator, thawed on ice, labeled with the date, and stored in the refrigerator immediately after use.
(§5) 1.3 20 µL of substrate solution was added to the corresponding wells, while 20 µL of PB (phosphate buffer) was added to the blank wells.
(§6) 1.4 2 µL of sample compound solution and positive control working solution were added to the appropriate wells, while 2 µL of solvent was added to inhibitor-free wells and blank wells.
(§7) 1.5 HLM (human liver microsome) working solution was prepared.
(§8) 1.6 158 µL of HLM working solution was added to all wells of the plate.
(§9) 1.7 The plate was pre-incubated in a 37°C water bath for approximately 10 minutes.
(§10) 1.8 NADPH (nicotinamide adenosine denucleotide hydro-phosphoric acid, i.e. reduced form coenzyme II) cofactor solution was prepared.
(§11) 1.9 20 µL of NADPH cofactor solution was added to all incubation wells.
(§12) 1.10 The solution was mixed and the plate was placed in 37°C water bath to incubate CYP for 10 minutes.
(§13) 1.11 At designated time points, the reaction was terminated by adding 400 µL of cold stopping solution.
(§14) 1.13 200 µL of the supernatant was transferred into 100 µL of HPLC-grade water and vortexed for 10 minutes.
(§15) 1.14 Samples were subjected to LC/MS/MS analysis.
(§16) Concentration-inhibition percentage curves of the control compound and test compounds were plotted using XL Fit or SigmaPlot, followed by nonlinear regression analysis.
(§17) IC50 values were determined using a 3 or 4 parameter logistic equation.

CYP2D6 = CYP2D6 (Homo sapiens, UniProt P10635); assay: In vitro CYP inhibition in human liver microsomes, CYP2D6
Experimental: as §3, §4, §5, §6, §7, §8, §9, §10, §11, §12, §13, §14, §15, §16, §17

PDE4B1 = target: T2, PDE4B1 (Homo sapiens, UniProt Q07343); assay: In vitro inhibitory effect on PDE4B1 enzyme (AMP-Glo assay); type: biochemical
T2 construct: purchased Sigma
Experimental: as §1, §2

CYP3A-M = CYP3A-M (Homo sapiens, UniProt P08684); assay: In vitro CYP inhibition in human liver microsomes, CYP3A-M
Experimental: as §3, §4, §5, §6, §7, §8, §9, §10, §11, §12, §16, §17

CYP1A2 = CYP1A2 (Homo sapiens, UniProt P05177); assay: In vitro CYP inhibition in human liver microsomes, CYP1A2
Experimental: as §3, §4, §5, §6, §7, §8, §9, §10, §11, §12, §13, §14, §15, §16, §17

CYP2C19 = CYP2C19 (Homo sapiens, UniProt P33261); assay: In vitro CYP inhibition in human liver microsomes, CYP2C19
Experimental: as §3, §4, §5, §6, §7, §8, §9, §10, §11, §12, §13, §14, §15, §16, §17

[1] = AMP-Glo Assay Kit, substrate cAMP, 23°C, 60 minutes, read-out: PDE3A (IC50)
[2] = AMP-Glo Assay Kit, substrate cAMP, 23°C, 10 minutes, read-out: PDE4B1 (IC50)

T2 sequence (Q07343 whole entry): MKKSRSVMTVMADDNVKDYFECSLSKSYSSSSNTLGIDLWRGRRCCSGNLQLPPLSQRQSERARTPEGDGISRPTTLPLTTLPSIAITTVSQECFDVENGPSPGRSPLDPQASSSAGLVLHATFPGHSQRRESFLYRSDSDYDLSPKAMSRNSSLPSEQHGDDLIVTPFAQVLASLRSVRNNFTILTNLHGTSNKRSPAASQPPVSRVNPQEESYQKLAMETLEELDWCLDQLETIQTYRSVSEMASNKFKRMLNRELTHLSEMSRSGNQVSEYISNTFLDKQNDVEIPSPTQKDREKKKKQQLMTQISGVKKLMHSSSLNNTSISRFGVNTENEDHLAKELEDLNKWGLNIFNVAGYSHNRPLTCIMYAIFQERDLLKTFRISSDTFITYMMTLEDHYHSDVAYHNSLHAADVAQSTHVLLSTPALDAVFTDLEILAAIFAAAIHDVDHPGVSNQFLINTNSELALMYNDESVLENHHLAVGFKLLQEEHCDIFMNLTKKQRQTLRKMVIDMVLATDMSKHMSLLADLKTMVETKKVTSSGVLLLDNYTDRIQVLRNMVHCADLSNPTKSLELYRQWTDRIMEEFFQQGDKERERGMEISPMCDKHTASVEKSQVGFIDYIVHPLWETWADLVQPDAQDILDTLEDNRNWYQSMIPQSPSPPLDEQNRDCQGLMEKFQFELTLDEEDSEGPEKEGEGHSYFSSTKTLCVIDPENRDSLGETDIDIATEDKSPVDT
CYP2D6, sequence (P10635 whole entry): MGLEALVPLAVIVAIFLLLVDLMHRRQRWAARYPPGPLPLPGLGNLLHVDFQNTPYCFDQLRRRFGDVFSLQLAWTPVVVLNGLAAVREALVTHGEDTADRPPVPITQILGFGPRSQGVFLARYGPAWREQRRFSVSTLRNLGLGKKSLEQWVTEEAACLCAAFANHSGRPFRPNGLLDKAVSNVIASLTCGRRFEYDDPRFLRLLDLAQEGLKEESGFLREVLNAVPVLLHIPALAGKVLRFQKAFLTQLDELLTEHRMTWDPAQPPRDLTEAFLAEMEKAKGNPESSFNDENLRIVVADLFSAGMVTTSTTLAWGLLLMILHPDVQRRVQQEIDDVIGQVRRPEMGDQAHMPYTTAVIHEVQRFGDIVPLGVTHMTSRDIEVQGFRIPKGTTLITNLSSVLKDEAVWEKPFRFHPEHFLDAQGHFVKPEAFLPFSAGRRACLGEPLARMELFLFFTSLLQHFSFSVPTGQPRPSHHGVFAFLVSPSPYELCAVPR
T1 sequence (Q14432 whole entry): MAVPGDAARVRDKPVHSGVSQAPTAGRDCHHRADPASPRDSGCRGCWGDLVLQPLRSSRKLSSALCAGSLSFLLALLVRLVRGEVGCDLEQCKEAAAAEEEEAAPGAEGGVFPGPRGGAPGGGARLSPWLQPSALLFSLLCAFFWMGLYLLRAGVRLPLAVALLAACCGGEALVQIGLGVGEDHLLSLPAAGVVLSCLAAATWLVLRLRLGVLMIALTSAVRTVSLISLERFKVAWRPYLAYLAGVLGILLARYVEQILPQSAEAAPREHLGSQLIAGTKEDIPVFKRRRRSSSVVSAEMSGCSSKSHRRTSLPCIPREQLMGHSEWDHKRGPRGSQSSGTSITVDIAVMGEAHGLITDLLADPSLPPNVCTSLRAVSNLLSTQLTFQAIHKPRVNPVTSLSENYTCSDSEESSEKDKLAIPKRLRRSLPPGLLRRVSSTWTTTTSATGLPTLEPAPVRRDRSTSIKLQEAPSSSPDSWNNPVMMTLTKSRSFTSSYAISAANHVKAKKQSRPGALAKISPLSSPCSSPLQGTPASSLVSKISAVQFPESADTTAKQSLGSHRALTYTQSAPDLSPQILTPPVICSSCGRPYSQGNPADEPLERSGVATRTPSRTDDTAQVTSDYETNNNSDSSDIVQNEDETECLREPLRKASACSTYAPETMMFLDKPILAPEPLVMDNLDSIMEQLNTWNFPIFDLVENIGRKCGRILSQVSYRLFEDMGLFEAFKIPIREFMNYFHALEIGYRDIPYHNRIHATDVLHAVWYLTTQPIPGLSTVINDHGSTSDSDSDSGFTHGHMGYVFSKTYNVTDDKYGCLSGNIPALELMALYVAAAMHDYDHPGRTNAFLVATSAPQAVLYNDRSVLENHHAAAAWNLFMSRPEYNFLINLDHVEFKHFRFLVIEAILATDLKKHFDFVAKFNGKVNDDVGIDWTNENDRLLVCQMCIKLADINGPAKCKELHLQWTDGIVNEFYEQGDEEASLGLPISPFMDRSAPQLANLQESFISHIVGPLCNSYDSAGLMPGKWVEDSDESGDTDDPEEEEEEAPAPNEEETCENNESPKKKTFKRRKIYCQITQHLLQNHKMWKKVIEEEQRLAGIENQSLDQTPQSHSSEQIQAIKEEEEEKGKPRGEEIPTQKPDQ
CYP2C9, sequence (P11712 whole entry): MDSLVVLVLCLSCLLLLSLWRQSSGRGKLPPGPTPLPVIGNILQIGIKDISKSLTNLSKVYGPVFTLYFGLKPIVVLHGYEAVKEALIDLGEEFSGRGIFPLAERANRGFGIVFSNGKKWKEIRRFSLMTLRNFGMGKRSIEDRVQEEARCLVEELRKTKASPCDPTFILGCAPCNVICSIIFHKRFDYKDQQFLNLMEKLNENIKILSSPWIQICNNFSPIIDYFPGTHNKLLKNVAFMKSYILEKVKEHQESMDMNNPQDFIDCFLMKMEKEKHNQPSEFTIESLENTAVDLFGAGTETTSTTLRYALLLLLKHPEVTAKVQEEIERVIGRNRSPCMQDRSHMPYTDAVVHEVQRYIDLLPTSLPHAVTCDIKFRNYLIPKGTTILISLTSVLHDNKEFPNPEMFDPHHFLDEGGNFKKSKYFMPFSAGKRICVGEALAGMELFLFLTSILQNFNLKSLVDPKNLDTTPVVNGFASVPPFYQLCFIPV
CYP3A-M, sequence (P08684 2-503): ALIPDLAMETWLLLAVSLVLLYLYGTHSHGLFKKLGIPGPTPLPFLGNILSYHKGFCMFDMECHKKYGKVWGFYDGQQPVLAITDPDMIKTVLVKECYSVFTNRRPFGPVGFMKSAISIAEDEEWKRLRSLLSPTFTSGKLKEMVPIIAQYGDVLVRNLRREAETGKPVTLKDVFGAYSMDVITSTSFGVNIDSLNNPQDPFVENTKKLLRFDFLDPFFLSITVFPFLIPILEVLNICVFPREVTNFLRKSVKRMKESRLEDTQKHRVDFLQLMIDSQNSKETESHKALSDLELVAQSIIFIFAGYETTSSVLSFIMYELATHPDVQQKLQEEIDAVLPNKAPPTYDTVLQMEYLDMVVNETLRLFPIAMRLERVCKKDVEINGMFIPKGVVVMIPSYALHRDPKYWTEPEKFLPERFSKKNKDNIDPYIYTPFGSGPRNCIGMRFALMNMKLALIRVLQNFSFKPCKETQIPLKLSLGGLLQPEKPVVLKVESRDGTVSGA
CYP1A2, sequence (P05177 whole entry): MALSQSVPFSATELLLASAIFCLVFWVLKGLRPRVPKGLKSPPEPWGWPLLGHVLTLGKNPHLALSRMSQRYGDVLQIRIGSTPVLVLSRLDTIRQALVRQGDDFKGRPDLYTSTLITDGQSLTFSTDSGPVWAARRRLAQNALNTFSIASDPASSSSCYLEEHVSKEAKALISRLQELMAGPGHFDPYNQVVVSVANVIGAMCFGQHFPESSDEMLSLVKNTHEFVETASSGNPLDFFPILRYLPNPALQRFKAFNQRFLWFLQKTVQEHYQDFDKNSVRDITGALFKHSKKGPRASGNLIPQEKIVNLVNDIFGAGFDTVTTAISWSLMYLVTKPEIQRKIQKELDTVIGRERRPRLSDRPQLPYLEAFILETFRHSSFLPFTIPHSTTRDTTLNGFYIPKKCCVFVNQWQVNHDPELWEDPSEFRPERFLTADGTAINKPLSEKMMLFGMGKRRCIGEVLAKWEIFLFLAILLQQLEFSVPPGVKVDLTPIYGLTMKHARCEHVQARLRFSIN
CYP2C19, sequence (P33261 whole entry): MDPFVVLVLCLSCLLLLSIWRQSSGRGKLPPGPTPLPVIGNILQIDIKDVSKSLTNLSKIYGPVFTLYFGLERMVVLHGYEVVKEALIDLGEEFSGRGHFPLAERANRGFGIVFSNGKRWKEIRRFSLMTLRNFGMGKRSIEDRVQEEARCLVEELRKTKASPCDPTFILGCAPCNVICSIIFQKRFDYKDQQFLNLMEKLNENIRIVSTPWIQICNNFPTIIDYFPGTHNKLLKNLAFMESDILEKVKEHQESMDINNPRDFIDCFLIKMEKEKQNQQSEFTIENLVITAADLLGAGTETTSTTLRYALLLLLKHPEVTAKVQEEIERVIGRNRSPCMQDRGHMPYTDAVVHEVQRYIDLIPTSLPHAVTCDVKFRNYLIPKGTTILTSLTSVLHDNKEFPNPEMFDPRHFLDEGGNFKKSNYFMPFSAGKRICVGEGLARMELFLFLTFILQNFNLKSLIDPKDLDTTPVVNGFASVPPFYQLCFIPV

For `CCOc1cc2c(cc1OC)-c1cc(N(CCCO)c3c(C)cc(C)cc3C)nc(=O)n1CC2` [Compound 60], the IC50 (PDE3A) was 0.0033 nM, the IC50 (CYP2C9) was 3870 nM and the IC50 (CYP2D6) was over 50000 nM. It also gave an IC50 (PDE4B1) of 6.3 nM, an IC50 at 10 min (CYP3A-M; microsomes) of over 50000 nM and an IC50 (CYP1A2) of over 50000 nM. The IC50 (CYP2C19) was 42100 nM.
Molecule `CCOc1cc2c(cc1OC)-c1cc(N(CCNC(N)=O)c3c(C)cc(C)cc3C)nc(=O)n1CC2` [Compound 84] has an IC50 (PDE3A; [1]) of 0.008 nM, an IC50 (CYP2C9) of 4520 nM and an IC50 (CYP2D6) of over 50000 nM. The IC50 (PDE4B1; [2]) was 7.5 nM, the IC50 at 10 min (CYP3A-M; human liver microsomes) was over 50000 nM and the IC50 (CYP1A2) was over 50000 nM. It also gave an IC50 (CYP2C19) of over 50000 nM.
Molecule `CCOc1cc2c(cc1OC)-c1cc(N(c3c(C)cc(C)cc3C)C(CO)CO)nc(=O)n1CC2` [Compound 80] has an IC50 (PDE3A) of 0.0028 nM, an IC50 (CYP2C9) of 10100 nM and an IC50 (CYP2D6) of over 50000 nM. For the same molecule, the IC50 (PDE4B1) was 7.4 nM, the IC50 at 10 min (CYP3A-M; microsomes) was 43500 nM and the IC50 (CYP1A2) was over 50000 nM. For the same molecule, the IC50 (CYP2C19) was 31500 nM.
For `CCOc1cc2c(cc1OC)-c1cc(N(CCO)c3c(C)cc(C)cc3C)nc(=O)n1CC2` [Compound 75], the IC50 (CYP2C9) was 8310 nM, the IC50 (CYP2D6) was over 50000 nM and the IC50 at 10 min (CYP3A-M; microsomes) was 33200 nM. The IC50 (CYP1A2) was over 50000 nM and the IC50 (CYP2C19) was 30600 nM.
Work on `CCOc1cc2c(cc1OC)-c1cc(N(CCC(=O)NCCO)c3c(C)cc(C)cc3C)nc(=O)n1CC2` [Compound 82] yielded an IC50 (PDE3A) of 0.088 nM, an IC50 (CYP2C9) of 9350 nM and an IC50 (CYP2D6) of over 50000 nM. For the same molecule, the IC50 (PDE4B1) was 14.2 nM, the IC50 at 10 min (CYP3A-M; microsomes) was 42800 nM and the IC50 (CYP1A2) was over 50000 nM. For the same molecule, the IC50 (CYP2C19) was over 50000 nM.
With `COc1cc2c(cc1OC)-c1c/c(=N\c3c(C)cc(C)cc3C)n(CCNC(N)=O)c(=O)n1CC2` [Ensifentrine, reference compound] the IC50 (PDE3A; [1]) was 0.17 nM, the IC50 (CYP2C9) was 3520 nM and the IC50 (CYP2D6) was 41500 nM. It also gave an IC50 (PDE4B1; [2]) of 102 nM, an IC50 at 10 min (CYP3A-M; human liver microsomes) of 8600 nM and an IC50 (CYP1A2) of over 50000 nM. For the same molecule, the IC50 (CYP2C19) was 23200 nM.
With `CCOc1cc2c(cc1OC)-c1cc(N(CCNC(=O)NOC)c3c(C)cc(C)cc3C)nc(=O)n1CC2` [Compound 86] the IC50 (PDE3A; [1]) was 0.034 nM, the IC50 (CYP2C9) was 3130 nM and the IC50 (CYP2D6) was 29700 nM. For the same molecule, the IC50 (PDE4B1; [2]) was 7.9 nM, the IC50 at 10 min (CYP3A-M; human liver microsomes) was 1630 nM and the IC50 (CYP1A2) was over 50000 nM. The IC50 (CYP2C19) was 29100 nM.
For `CCOc1cc2c(cc1OC)-c1cc(N(CCNC(=O)c3ccccn3)c3c(C)cc(C)cc3C)nc(=O)n1CC2` [Compound 63], the IC50 (PDE3A; [1]) was 0.042 nM and the IC50 (PDE4B1; [2]) was 1.2 nM.
With `CCOc1cc2c(cc1OC)CCn1c-2cc(=Nc2c(C)cc(C)cc2C)n(CCNC(N)=O)c1=O` [Compound 12] the IC50 (PDE3A) was 7.45 nM and the IC50 (PDE4B1) was 337 nM.
`CCOc1cc2c(cc1OC)-c1cc(N(c3c(C)cc(C)cc3C)C3CC(NC(=O)c4c(O)nnn4C)C3)nc(=O)n1CC2` (stereo not shown) [Compound 31] was tested, and the IC50 (PDE3A) was 0.57 nM and the IC50 (PDE4B1) was 193 nM.
With `COc1cc2c(cc1OC)-c1cc(N(c3c(C)cc(C)cc3C)C3CN(C(=O)c4nnc[nH]4)C3)nc(=O)n1CC2` [Compound 56] the IC50 (PDE3A; [1]) was 0.82 nM and the IC50 (PDE4B1; [2]) was 8880 nM.
With `COc1cc2c(cc1OC)-c1cc(=Nc3c(C)cc(C)cc3C)n(CCNC(=O)N3CCn4c(nnc4C(F)(F)F)C3)c(=O)n1CC2` [Compound 33] the IC50 (PDE3A) was 4.78 nM and the IC50 (PDE4B1) was 3760 nM.
Molecule `COc1cc2c(cc1OC)-c1cc(=Nc3c(C)cc(C)cc3C)n(CCNC(=O)NCCN3CCOCC3)c(=O)n1CC2` [Compound 38] has an IC50 (PDE3A) of 1.61 nM and an IC50 (PDE4B1) of 1890 nM.
With `COc1cc2c(cc1OC)-c1cc(=Nc3c(C)cc(C)cc3F)n(CCNC(N)=O)c(=O)n1CC2` [Compound 66] the IC50 (PDE3A) was 0.64 nM and the IC50 (PDE4B1) was 268 nM.
Work on `CCOc1cc2c(cc1OC)-c1cc(=Nc3c(C)cc(C)cc3C)n(CCNC(=O)c3cccn(C)c3=O)c(=O)n1CC2` [Compound 52] yielded an IC50 (PDE3A) of 0.37 nM and an IC50 (PDE4B1) of 0.89 nM.
Molecule `CCOc1cc2c(cc1OC)-c1cc(N(CCN)c3c(C)cc(C)cc3C)nc(=O)n1CC2` [Compound 42] has an IC50 (PDE3A) of 0.62 nM and an IC50 (PDE4B1) of 75.3 nM.
With `CCOc1cc2c(cc1OC)-c1cc(=Nc3c(C)cc(C)cc3C)n(CCCN)c(=O)n1CC2` [Compound 87] the IC50 (PDE3A) was 3.02 nM and the IC50 (PDE4B1) was 359 nM.
